The record followed here is ChEMBL document CHEMBL3407463 (Eur J Med Chem, 2014).

Molecules are shown by their SMILES. Activity calls are given as the source filed them. No cut-off for these calls is given here. A value given as a limit tells only on which side of the number the result lay.

The test system of assay [1] is MCF7. In words: Cytotoxicity against human placental microsome aromatase expressing human MCF7 cells assessed as reduction in cell viability at 1 to 2.5 uM after 2 days by MTT assay in presence of testosterone. The assay is classed as functional.
Assay [2] relates to MCF7. Briefly: Cytotoxicity against human placental microsome aromatase expressing human MCF7 cells assessed as reduction in cell viability at 5 to 15 uM after 2 days by MTT assay in presence of testosterone. The assay is classed as functional, cell-based. For orientation: Tetrazolium assays rely on reduction of a dye to a coloured formazan, in cell work by metabolically active cells.

Assay [3] concerns MCF7. Briefly: Cytotoxicity against human placental microsome aromatase expressing human MCF7 cells at 1 to 15 uM after 2 to 6 days by LDH assay in presence of testosterone. The assay is classed as functional, cell-based.
For assay [4], the system named is MCF7. Briefly: Cytotoxicity against human placental microsome aromatase expressing human MCF7 cells assessed as reduction in cell viability up to 15 uM after 3 to 6 days by MTT assay in presence of estradiol. Format: functional, cell-based.
Assay [5] has as its target T1, Aromatase (Homo sapiens, UniProt P11511).
T1 sequence (P11511 whole entry): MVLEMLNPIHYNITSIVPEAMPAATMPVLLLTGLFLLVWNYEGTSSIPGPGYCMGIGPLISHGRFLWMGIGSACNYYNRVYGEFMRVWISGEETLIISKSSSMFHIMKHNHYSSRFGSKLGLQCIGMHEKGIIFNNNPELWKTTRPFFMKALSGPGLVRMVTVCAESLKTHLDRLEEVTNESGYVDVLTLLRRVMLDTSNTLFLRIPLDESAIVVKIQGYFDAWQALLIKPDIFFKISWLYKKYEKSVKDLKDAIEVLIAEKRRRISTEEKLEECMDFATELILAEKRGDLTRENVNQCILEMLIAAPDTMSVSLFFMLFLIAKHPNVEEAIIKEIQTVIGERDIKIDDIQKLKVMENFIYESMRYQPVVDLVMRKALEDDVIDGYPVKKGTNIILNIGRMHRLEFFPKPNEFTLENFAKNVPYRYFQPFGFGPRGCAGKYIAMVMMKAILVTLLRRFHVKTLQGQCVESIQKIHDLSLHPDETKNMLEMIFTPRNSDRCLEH
Briefly: Inhibition of human placental microsome aromatase using [1beta-3H] androstenedione as substrate at 2 uM after 15 mins by liquid scintillation counting. Particulars: 0.25 h.

The target in assay [6] is T1, Aromatase. In words: Inhibition of human placental microsome aromatase using [1beta-3H] androstenedione as substrate after 15 mins by liquid scintillation counting.
The target in assay [7] is T1, Aromatase. In words: Inhibition of human […] aromatase expressed in human MCF7 cells using [1beta-3H] androstenedione as substrate at 10 uM after 1 hr by liquid scintillation counting. The assay is classed as cell-based.
The target of assay [8] is T1, Aromatase. Briefly: Inhibition of human […] aromatase expressed in human MCF7 cells using [1beta-3H] androstenedione as substrate after 1 hr by liquid scintillation counting. Format: cell-based.
In assay [9] the test system is MCF7. Briefly: Cytotoxicity against human placental microsome aromatase expressing human MCF7 cells after 2 to 6 days by MTT assay in presence of testosterone. The assay is classed as functional, cell-based.
Assay [10] relates to MCF7. In words: Cytotoxicity against human placental microsome aromatase expressing human MCF7 cells at 1 to 15 uM by MTT assay in presence of testosterone. The assay is classed as functional, cell-based. Particulars: TDE = time-dependent effect.
Assay [11] deals with MCF7. Briefly: Cytotoxicity against human placental microsome aromatase expressing human MCF7 cells at 5 to 15 uM after 2 to 3 days by LDH assay in presence of testosterone. The assay is classed as functional, cell-based.
Assay [12] relates to MCF7. Briefly: Cytotoxicity against human placental microsome aromatase expressing human MCF7 cells assessed as reduction in cell viability up to 5 uM after 3 to 6 days by MTT assay in presence of estradiol. The assay is classed as functional, cell-based.
Assay [13] relates to MCF7. In words: Cytotoxicity against human placental microsome aromatase expressing human MCF7 cells at 0.01 to 15 uM by MTT assay in presence of testosterone. Particulars: TDE = time-dependent effect. Format: functional, cell-based.
The subject of assay [14] is MCF7. In words: Cytotoxicity against human placental microsome aromatase expressing human MCF7 cells assessed as reduction in cell viability up to 15 uM after 3 to 6 days by MTT assay in presence of testosterone. Format: functional, cell-based.

The inhibition is the drop in the measured response relative to a control, in per cent. By IC50 is commonly meant the point on the concentration scale where inhibition reaches its midpoint. Read a low IC50 as higher potency. Regarding `C[C@]12C=CC(=O)C=C1C(CO)=C[C@@H]1[C@@H]2CC[C@]2(C)C(=O)CC[C@@H]12`, the result in assay [1] and in [4] was Active. The outcome in assay [2] and in assay [3] was inactive. This compound also showed an inhibition at 2 µM in assay [5] of 81%. Besides, the IC50 was determined as 670 nM in assay [6] and 980 nM in [8]. The inhibition at 10 µM in assay [7] is 84%. The figures for the Activity result in assay [9] and in assay [10] were “Dose-dependent effect” and “tde”, respectively.

As for `C=C1C[C@@H]2[C@H](CC[C@]3(C)C(=O)CC[C@@H]23)[C@]2(C)C1=CC(=O)[C@@H]1O[C@@H]12`, the values for the Activity in assay [1], in assay [9] and in [13] were less than 25%, “Dose-dependent effect” and “tde”, respectively. Moreover, the result in [11] and in assay [12] was Active. The compound further showed an inhibition at 2 µM in assay [5] of 86.8%. For the same compound, the IC50 turned out to be 810 nM in assay [6] and 1180 nM in assay [8]. In assay [7], the inhibition at 10 µM turned out to be 88.6%.

Take `C[C@]12C=CC(=O)C=C1[C@@]1(CO1)C[C@@H]1[C@@H]2CC[C@]2(C)C(=O)CC[C@@H]12`: the result in [1] and in [4] was Active. The outcome in assay [2] and in assay [3] was inactive. In [5], this compound had an inhibition at 2 µM of 91.7%. Also, the IC50 in assay [6] came out at 620 nM; in [8] it was 730 nM. In [7], this compound returned an inhibition at 10 µM of 95.3%. Besides, the Activity result in assay [9] is “Dose-dependent effect”; in assay [10], “tde”.

`C=C1C[C@H]2[C@@H]3CC[C@H](O)[C@@]3(C)CC[C@@H]2[C@@]2(C)C=CC(=O)C=C12`: the result in assay [1], in assay [4] and in [14] was Active. Moreover, the result in [2] and in [3] was inactive. The results for the Activity entry in assay [9] and in assay [10] were “Dose-dependent effect” and “tde”, respectively.
